{"source": "patent US20220265646A1", "about": "“PIEZO AGONISTS FOR PREVENTING OR REVERTING ABNORMAL AMYLOID DEPOSITION” (ITÄ-SUOMEN YLIOPISTO, priority 2019, published 2022)", "key": {"native Piezo1Rs": {"molecular_target": "T1, native Piezo1Rs (Homo sapiens, UniProt Q92508)", "T1 construct": "endogenous in cells; host or cells: human iPSC-derived microglia", "T1 sequence (Q92508 whole entry)": "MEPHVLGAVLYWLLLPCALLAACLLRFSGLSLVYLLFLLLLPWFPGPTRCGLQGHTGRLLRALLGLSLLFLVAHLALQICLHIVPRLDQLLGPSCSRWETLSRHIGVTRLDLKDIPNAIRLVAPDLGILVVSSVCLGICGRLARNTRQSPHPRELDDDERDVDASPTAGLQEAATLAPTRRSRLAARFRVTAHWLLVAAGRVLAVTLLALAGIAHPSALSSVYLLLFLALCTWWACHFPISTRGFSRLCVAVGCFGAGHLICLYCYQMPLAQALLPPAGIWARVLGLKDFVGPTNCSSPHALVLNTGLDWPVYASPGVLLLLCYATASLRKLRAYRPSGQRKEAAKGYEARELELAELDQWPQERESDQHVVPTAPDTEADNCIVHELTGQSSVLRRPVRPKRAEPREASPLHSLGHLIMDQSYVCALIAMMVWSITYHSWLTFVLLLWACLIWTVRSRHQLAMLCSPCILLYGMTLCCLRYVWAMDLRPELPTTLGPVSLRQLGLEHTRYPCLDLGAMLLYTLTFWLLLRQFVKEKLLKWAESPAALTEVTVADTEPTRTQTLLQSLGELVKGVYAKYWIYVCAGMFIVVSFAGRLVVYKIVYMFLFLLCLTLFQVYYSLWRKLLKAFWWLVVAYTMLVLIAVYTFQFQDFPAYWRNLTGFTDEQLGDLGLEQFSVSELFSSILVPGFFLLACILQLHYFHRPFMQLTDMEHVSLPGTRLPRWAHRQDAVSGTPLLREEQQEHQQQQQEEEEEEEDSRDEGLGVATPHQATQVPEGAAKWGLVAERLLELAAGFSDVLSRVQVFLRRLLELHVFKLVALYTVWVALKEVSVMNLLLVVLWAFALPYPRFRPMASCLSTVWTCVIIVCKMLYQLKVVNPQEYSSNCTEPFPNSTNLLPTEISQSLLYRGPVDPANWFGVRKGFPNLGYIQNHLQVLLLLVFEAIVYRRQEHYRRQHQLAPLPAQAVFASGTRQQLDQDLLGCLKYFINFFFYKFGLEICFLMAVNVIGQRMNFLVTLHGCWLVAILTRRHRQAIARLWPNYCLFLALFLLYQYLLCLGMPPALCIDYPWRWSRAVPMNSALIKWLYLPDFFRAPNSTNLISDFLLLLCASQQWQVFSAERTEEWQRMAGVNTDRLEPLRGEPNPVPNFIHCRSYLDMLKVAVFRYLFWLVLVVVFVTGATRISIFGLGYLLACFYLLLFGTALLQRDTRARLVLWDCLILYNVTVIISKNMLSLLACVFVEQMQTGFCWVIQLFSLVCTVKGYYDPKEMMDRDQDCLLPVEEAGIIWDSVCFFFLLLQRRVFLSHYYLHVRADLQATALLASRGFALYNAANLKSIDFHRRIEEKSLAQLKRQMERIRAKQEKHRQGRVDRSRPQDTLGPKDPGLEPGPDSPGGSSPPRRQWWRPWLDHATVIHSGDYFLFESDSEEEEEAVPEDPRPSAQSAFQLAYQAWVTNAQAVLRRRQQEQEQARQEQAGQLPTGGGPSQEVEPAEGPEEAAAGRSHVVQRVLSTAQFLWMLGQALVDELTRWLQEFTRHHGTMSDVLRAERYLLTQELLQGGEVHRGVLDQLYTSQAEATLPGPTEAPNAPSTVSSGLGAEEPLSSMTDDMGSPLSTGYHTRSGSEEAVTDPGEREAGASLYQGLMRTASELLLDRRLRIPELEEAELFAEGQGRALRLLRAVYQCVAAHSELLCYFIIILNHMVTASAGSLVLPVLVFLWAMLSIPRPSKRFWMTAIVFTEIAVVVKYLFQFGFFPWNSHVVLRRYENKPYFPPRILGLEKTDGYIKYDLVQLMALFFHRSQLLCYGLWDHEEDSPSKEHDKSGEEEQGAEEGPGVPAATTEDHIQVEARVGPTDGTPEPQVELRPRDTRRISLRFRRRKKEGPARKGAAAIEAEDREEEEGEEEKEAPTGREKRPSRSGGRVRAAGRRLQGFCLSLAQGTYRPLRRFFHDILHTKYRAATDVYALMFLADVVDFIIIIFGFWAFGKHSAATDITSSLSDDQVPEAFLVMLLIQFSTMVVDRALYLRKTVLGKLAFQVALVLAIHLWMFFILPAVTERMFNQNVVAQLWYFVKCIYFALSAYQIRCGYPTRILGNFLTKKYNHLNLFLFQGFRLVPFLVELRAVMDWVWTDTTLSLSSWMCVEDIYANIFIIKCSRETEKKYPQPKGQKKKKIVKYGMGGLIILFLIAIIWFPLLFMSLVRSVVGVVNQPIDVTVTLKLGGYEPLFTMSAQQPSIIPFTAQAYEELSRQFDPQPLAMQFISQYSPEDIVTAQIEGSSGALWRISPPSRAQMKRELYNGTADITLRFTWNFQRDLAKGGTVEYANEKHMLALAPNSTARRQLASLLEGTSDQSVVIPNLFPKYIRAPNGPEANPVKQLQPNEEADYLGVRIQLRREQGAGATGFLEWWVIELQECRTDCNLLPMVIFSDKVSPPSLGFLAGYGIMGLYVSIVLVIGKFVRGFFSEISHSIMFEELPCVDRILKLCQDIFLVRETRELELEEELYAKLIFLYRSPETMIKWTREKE", "test": "Calcium imaging of Yoda1-evoked Ca2+ influx in hiPSC-derived microglia", "format": "cell-based", "conditions": "50 μM GdCI in BS pre-incubation", "method": "(§1) To study the calcium influx evoked by native Piezo1 Rs expressed in microglia cells the present inventors used short Yoda1 applications (2 s, 50 μM if not otherwise specified). For this purpose, human IPSO derived microglia cells and SV-40 (immortalized human microglia) cells were seeded on 7 mm cover slips 1 day prior to the imaging experiment. Cells were loaded with the calcium-sensitive fluorescent dye Fluo-4AM (5 μM) for 30 min at 37° C. Followed by wash-incubation for 15 min in Ab 20 μM, 50 μM GdCI and basic solution (BS) as a control at 37° C. The basic solution containing the following (BS, in mM): 2.5 KCl, 152 NaCl, 10 glucose, 2 CaCl2, and 10 HEPES at pH 7.4. Fluorescence was visualized using monochromatic light source (TILL Photonics GmbH) using Ex/Im 494/[…] and a CCD camera (SensiCam). Chemicals were applied using a fast perfusion system (RSC-200, BioLogic Science). To quantify the difference in the amplitude of calcium transients, the ratio values were normalized by subtracting a baseline and further divided by the amplitude of the calcium transient to the 2 sec application of the ionomycin. Data were pre-analyzed offline using the FEI offline analysis (TILL Photonics), and further analysis was automatized using MatLab. Quantitative data were expressed as means±SEM unless otherwise stated. Number of experiments is indicated by n. Significance assessed with the ANOVA test or Mann-Whitney t test for non-parametric data. Statistically significant differences were set at*p<0.05 and **p<0.01.\nDifferentiation of microglia. Differentiation of microglia was carried out as previously described with minor modifications (Abud et al., 2017). Shortly, on DO, iPSCs were dissociated to single cells with 0.5 mM EDTA or Accutase and were replated at a density of 6-,000-16,000 cells/cm2 on Matrigel in E8, 0.5% penicillin/streptomycin (P/S, 50 IU/50 […]), 5 ng/ml BMP4, 25 ng/ml activin a (both from Peprotech or Miltenyi Biotec), 1 μM CHIR 99021 (Axon or Stem Cell Technologies) and 10 μM Y-27632 to induce mesodermal differentiation. […]"}, "Piezo1Rs": {"molecular_target": "T2, Piezo1Rs (Homo sapiens, UniProt Q92508)", "T2 construct": "SV-40 immortalized human microglia cell line which endogenously express Piezo-1 and Piezo2Rs was used; endogenous in cells; host or cells: SV-40 immortalized human microglia cell line", "T2 sequence (Q92508 whole entry, the tested form may be a part)": "as the sequence (Q92508 whole entry) above", "test": "Calcium imaging of Yoda1-evoked Ca2+ transients in SV-40 immortalized human microglia cell line", "format": "cell-based", "conditions": "SV-40 cells, n=13, p=0.00009", "method": "as §1, with “Chemicals were applied using a fast perfusion system (RSC-200, BioLogic Science).” left out, “Number of experiments is indicated by n.” left out, “Statistically significant differences were set at*p<0.05 and **p<0.01.” left out"}}}
{"compound": "[Cl][Gd]([Cl])[Cl]", "note": "[GdCI, Gadolinium chloride]", "values": [{"measurement": "Yoda1-activated Ca2+ transients after pre-incubation with GdCI", "setting": "native Piezo1Rs; 50 μM Yoda1 2 s, n=5, p=0.0073", "value": "0.10±0.1"}, {"measurement": "inhibition of Yoda1-activated Ca2+ transients", "setting": "native Piezo1Rs; hiPSC microglia", "value": 90, "unit": "%"}, {"measurement": "Yoda1 activated Ca2+ transients after pre-incubation of GdCI", "setting": "Piezo1Rs", "value": "0.17±0.04"}]}
